In US12187681B2 (Shanghai East Hospital, priority 2019, dated 2025):

Tests used:
[1] = molecular target: T1, CaV1.2 (L-type voltage-dependent calcium channel; CACNA1C, CACNB2, CACNA2D1) (Homo sapiens, UniProt Q13936); experiment: CaV1.2 channel whole-cell patch clamp (Ion Channel Activity Measurement); type: cell-based; conditions: human, room temperature; for inhibition at 5 min, 1 μM: pH 7.4, 1 μM test article; for inhibition at 5 min, 10 μM: pH 7.4, 10 μM test article, read-out: CaV 1.2 10 μM (ion-channel inhibition)
T1 construct: expressed in transfected cells; host or cells: CHO
Method: • CHO cell line stably expressing human calcium channel, voltage-dependent, L type, • CACNA1C: cDNA strictly similar to GenBank accession number: NM_000719 • CACNB2: cDNA strictly similar to GenBank accession number: NM_000724 • CACNA2D1: cDNA strictly similar to GenBank accession number: NM_000722 Iks Channel Cell Line:
(§1) Cells expressing channels were cultured in medium supplemented with 20% FBS in HAM'S F12 culture dish. Cells grew in a humidified incubator at 37° C. under 5% carbon dioxide. To passage cells, remove poor medium and rinse the cells once with PBS 1X. […] Place plate on a 37° C. warming incubator 5 min. As soon as cells are detached, add 5 ml of 37° C. complete medium. Draw cell suspension into a sterile pipet and homogenize cells gently to dissociate cells aggregates. Amplify or maintain the cells by seeding 2.5*105 cells in a 6 cm dish (final volume: 5 ml). To maintain electrophysiological performances, cell density must not exceed 80%. On the day before patch clamp experiment, 3*103 cells were seeded on coverslips in the 24-well plate and incubated at 37° C. in 5% carbon dioxide.
Bath solution: 140 mM TEA-C1, 2 mM MgCl2·6H2O, 10 mM CaCl2, 10 mM HEPES, 5 mM D-glucose, pH=7.4 with TEA-OH. Pipette solution: 120 mM CsCl, 1 mM MgCl2·6H2O, 10 mM HEPES, 10 mM EGTA, 0.3 mM Na2-GTP, 4 mM Mg-ATP, pH=7.2 with CsOH.
(§2) Glass pipette (BF150-86-10, Sutter Instruments) was made by puller (P97, Sutter Instruments). The glass pipette was manipulated using Micro-manipulator (Carm-C-S, MCI Instruments) under the microscope (AE31EF-INV, Motic). After touching the cell, a slight suction was applied to achieve high seal (GΩ). Fast capacitance (in pF) compensation was made after high seal was achieved; after achieving high seal, the membrane was broken, Cell capacitance (in pF) compensation was made from whole-cell capacitance compensation after the whole cell mode was achieved. No leak subtraction was made.
(§3) Cell was incubated with the test article for 5 minutes, or until the current reached a steady-state level. Multiple concentrations of test article were tested. The test articles were applied gradually from low to high concentration. The test and control solutions were flown into a recording chamber mounted on the stage of an inverted microscope via a gravity-fed solution delivery system. During the experiment, solutions were withdrawn from the recording chamber by vacuum aspiration. Each concentration was tested at multiple times. Each cell acted as its own control. All tests were performed at room temperature (23-25° C.).
Cav1.2 current was recorded under a holding potential at −80 mV and then depolarized to +10 mV for 0.3 seconds. This protocol was repeated at 20 s intervals to observe the effect of test articles on the peak of Cav1.2 current.

[2] = molecular target: T2, hERG (human ether-a-go-go related gene potassium channel, KCNH2) (Homo sapiens, UniProt Q12809); experiment: hERG channel whole-cell patch clamp (Ion Channel Activity Measurement); type: cell-based; conditions: human, room temperature; for inhibition at 1 μM: pH 7.4, 1 μM test article; for inhibition at 10 μM: pH 7.4, 10 μM test article
T2 construct: expressed in transfected cells; host or cells: HEK293
Method: HEK293 cell line expressing the human ERG (ether-a-go-go related gene) potassium channel (Potassium voltage-gated channel subfamily H member 2). cDNA strictly similar to GenBank accession number: NM_000238
as §1, §2, §3
hERG current was recorded under a holding potential at −80 mV and then depolarized to 30 mV for 2.5 seconds to activate the hERG channel. The peak tail currents were induced by a repolarizing pulse to −50 mV for 4 seconds. This voltage-clamp pulse protocol was performed continuously during the experiment. An interpulse interval of 10 seconds allowed recovery from inactivation. An interpulse of −50 mV test for 0.5 second before 30 mV depolarized step was included for leak current correction

[3] = HEK293 cells expressing the human ERG potassium channel

T1 sequence (Q13936 1-2138 isoform Q13936-12): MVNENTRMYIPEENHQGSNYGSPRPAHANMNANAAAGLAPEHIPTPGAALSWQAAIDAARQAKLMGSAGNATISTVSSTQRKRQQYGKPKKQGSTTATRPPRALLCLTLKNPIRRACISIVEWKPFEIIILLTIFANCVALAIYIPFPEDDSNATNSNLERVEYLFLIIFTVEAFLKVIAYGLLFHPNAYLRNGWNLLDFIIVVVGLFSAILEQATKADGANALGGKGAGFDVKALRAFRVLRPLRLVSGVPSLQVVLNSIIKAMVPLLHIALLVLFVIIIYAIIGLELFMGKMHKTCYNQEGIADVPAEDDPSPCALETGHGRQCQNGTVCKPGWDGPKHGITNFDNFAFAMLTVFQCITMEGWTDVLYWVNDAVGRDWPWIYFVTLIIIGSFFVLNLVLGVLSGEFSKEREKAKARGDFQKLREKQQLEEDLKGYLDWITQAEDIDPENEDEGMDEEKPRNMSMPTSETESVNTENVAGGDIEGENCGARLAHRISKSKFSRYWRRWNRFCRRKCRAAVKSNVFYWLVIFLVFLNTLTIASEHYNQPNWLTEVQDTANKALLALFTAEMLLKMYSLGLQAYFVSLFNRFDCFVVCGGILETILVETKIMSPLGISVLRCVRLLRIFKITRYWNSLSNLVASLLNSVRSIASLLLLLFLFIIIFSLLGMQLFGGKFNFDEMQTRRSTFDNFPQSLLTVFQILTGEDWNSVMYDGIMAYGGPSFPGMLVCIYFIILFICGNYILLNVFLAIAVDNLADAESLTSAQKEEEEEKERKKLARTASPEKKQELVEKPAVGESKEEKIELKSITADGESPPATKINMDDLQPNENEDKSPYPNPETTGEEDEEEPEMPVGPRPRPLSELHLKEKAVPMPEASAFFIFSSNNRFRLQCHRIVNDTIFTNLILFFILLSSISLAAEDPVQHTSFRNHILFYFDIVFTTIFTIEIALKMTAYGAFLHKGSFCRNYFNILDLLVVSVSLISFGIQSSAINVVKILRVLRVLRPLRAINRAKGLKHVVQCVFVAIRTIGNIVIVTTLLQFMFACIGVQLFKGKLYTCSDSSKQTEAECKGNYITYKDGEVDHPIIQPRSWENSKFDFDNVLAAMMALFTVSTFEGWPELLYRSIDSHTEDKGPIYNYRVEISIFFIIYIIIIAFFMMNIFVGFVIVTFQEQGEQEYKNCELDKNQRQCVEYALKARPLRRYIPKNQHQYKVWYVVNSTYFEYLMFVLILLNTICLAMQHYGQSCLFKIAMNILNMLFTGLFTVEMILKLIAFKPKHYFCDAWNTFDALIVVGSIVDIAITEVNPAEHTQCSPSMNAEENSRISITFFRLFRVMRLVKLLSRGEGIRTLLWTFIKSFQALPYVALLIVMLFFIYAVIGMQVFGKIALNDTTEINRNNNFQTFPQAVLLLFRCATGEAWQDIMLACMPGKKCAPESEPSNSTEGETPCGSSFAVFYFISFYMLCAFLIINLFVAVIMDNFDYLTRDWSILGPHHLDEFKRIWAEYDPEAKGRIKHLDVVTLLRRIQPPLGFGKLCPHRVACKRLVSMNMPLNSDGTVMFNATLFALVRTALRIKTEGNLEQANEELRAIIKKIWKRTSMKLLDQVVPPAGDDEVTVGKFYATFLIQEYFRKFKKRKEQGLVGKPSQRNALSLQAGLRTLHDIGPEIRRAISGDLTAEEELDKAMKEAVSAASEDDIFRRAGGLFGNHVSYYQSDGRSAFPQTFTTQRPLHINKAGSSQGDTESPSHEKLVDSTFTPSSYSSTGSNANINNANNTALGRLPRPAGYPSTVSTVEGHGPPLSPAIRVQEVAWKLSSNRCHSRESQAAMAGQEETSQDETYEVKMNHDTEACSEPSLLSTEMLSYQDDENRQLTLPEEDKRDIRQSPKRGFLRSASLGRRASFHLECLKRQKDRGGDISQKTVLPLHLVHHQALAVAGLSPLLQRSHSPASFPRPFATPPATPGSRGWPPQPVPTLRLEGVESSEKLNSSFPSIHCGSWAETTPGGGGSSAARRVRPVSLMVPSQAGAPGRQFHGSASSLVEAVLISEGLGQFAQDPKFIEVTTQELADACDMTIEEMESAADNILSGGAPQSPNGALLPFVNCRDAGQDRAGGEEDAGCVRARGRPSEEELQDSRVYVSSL
T1 sequence (Q08289 1-605 isoform Q08289-2 partner): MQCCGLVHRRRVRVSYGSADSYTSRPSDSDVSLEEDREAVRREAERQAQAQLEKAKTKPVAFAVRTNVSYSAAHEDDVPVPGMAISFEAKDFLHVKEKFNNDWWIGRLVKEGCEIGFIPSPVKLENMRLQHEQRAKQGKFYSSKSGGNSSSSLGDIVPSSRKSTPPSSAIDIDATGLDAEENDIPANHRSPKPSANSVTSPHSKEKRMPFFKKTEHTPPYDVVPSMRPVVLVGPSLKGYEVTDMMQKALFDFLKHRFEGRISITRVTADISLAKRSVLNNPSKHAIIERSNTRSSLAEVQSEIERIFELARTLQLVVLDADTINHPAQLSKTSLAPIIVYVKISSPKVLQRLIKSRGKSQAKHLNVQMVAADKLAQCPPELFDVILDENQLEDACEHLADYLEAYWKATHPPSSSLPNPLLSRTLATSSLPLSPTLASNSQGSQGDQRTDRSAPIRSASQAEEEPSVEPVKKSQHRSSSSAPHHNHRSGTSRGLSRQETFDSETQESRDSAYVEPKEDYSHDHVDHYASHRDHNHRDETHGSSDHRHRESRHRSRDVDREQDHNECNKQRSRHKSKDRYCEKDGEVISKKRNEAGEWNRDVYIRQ
T1 sequence (P54289 25-1091 isoform P54289-2 partner limits assumed): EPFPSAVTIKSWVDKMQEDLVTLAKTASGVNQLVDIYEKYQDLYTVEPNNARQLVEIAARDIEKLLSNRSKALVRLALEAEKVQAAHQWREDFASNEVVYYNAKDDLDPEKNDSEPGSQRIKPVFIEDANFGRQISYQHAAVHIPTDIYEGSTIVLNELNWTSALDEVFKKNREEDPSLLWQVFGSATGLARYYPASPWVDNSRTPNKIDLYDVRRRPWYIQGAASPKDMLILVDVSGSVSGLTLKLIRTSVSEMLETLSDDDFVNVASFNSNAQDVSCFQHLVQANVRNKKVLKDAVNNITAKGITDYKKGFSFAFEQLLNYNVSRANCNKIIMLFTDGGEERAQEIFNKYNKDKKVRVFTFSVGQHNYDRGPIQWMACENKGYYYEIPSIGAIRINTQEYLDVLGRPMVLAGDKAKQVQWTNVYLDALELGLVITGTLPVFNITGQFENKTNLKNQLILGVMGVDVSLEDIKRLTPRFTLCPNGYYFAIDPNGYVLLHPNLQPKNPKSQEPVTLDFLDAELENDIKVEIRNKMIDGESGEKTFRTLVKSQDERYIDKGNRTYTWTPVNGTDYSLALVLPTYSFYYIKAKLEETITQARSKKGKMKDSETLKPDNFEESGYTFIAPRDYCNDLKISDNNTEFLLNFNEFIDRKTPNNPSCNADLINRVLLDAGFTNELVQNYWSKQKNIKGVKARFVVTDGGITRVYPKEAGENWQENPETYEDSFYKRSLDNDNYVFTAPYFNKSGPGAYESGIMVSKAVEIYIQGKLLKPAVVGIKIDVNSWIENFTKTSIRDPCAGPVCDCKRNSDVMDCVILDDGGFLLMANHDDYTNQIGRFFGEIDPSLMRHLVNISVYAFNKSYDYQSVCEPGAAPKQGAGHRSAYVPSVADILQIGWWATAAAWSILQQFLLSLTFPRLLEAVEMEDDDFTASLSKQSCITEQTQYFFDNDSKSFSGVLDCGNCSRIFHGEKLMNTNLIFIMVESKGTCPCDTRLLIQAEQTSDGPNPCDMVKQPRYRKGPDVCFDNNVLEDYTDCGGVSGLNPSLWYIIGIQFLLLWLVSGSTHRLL
T1 sequence (P54289 957-1103 partner limits assumed): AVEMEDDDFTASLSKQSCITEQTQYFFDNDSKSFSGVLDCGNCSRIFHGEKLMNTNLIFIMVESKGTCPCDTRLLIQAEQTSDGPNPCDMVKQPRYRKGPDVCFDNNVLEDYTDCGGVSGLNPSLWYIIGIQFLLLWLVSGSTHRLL
T2 sequence (Q12809 whole entry): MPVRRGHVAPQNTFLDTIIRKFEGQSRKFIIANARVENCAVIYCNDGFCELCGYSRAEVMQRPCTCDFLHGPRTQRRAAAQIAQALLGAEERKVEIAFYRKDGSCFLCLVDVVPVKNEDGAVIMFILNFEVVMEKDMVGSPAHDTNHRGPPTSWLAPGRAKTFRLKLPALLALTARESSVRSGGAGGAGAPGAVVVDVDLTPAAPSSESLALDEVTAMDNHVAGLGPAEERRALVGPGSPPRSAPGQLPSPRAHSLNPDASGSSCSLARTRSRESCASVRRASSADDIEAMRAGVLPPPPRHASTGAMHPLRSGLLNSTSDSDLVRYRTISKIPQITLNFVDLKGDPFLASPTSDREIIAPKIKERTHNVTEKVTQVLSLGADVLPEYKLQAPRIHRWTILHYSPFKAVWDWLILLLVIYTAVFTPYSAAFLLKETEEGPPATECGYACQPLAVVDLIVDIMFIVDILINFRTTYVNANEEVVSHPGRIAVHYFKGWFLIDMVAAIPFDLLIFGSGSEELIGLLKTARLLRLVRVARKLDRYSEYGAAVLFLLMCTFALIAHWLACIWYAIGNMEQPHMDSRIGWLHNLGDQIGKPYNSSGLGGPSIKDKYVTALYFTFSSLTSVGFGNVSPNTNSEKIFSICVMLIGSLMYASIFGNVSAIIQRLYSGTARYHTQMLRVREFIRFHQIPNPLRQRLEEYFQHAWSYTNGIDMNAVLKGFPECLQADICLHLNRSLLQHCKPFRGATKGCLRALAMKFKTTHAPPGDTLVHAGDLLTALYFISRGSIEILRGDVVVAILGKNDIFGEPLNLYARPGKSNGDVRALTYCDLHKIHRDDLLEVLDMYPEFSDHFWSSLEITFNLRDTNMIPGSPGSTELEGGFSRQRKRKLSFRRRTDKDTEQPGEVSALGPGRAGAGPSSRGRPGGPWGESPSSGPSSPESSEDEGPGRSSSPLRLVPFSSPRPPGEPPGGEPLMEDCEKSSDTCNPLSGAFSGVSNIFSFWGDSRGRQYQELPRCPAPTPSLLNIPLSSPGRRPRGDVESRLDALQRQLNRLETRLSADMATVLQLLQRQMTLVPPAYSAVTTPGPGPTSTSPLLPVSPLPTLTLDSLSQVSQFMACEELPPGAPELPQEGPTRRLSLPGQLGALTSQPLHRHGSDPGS

Oc1ccc2ccccc2c1Cc1c(O)ncc2ccccc12 [Compound A027, 4-((2-hydroxynaphthalen-1-yl)methyl)isoquinolin-3-ol]
inhibition at 5 min, 1 μM [1]: < 25%
inhibition at 5 min, 10 μM [1]: 25 to 50%
inhibition at 1 μM [2, 3]: < 25%
inhibition at 10 μM [2, 3]: < 25%

O=C(Nc1c(O)ccc2ccccc12)c1c(O)ccc2ccccc12 [Compound A044, 2-hydroxy-N-(2-hydroxynaphthalen-1-yl)-1-naphthamide]
inhibition at 5 min, 1 μM [1]: < 25%
inhibition at 5 min, 10 μM [1]: < 25%
inhibition at 1 μM [2, 3]: < 25%
inhibition at 10 μM [2, 3]: 25 to 50%

CCCCCCOc1ccc2ccccc2c1Cc1c(OCCN)ccc2ccccc12 [Compound A247, 2-((1-((2-(hexyloxy)naphthalen-1-yl)methyl)naphthalen-2-yl)oxy)ethan-1-amine]
inhibition at 5 min, 1 μM [1]: < 25%
inhibition at 1 μM [2, 3]: < 25%

O=C(c1c(O)ccc2ccccc12)c1c(OCCN2CCCC2)ccc2ccccc12 [Compound A234, (2-hydroxynaphthalen-1-yl)(2-(2-(pyrrolidin-1-yl)ethoxy)naphthalen-1-yl)methanone]
inhibition at 5 min, 1 μM [1]: < 25%
inhibition at 5 min, 10 μM [1]: 75 to 100%
inhibition at 1 μM [2, 3]: 75 to 100%
inhibition at 10 μM [2, 3]: 75 to 100%

CS(=O)(=O)Nc1cc(Cc2c(NS(C)(=O)=O)ccc3ccccc23)c2ccccc2c1 [Compound A024-2, N-(1-((3-(methylsulfonamido)naphthalen-1-yl)methyl)naphthalen-2-yl)methanesulfonamide]
inhibition at 5 min, 1 μM [1]: < 25%
inhibition at 5 min, 10 μM [1]: 25 to 50%
inhibition at 1 μM [2, 3]: < 25%
inhibition at 10 μM [2, 3]: 50 to 75%

Oc1ccc2ccccc2c1Cn1c(O)nc2ccccc21 [Compound A056, 1-((2-hydroxynaphthalen-1-yl)methyl)-1H-benzo[d]imidazol-2-ol]
inhibition at 5 min, 1 μM [1]: < 25%
inhibition at 5 min, 10 μM [1]: 25 to 50%
inhibition at 1 μM [2, 3]: < 25%
inhibition at 10 μM [2, 3]: < 25%

NC(=O)c1ccc2ccccc2c1Cc1c(C(N)=O)ccc2ccccc12 [Compound A101, 1,1′-methylenebis(2-naphthamide)]
inhibition at 5 min, 1 μM [1]: < 25%
inhibition at 5 min, 10 μM [1]: < 25%
inhibition at 1 μM [2, 3]: < 25%
inhibition at 10 μM [2, 3]: 50 to 75%

CCN(CC)CC(=O)Nc1ccc2ccccc2c1Cc1c(OC)ccc2ccccc12 [Compound A284, 2-(diethylamino)-N-(1-((2-methoxynaphthalen-1-yl)methyl)naphthalen-2-yl)acetamide]
inhibition at 5 min, 1 μM [1]: < 25%
inhibition at 5 min, 10 μM [1]: < 25%
inhibition at 1 μM [2, 3]: 25 to 50%

Oc1ccc2ccccc2c1Cc1c(OCCC2CCNCC2)ccc2ccccc12 [Compound A286, 1-((2-(2-(piperidin-4-yl)ethoxy)naphthalen-1-yl)methyl)naphthalen-2-ol]
inhibition at 5 min, 1 μM [1]: < 25%
inhibition at 5 min, 10 μM [1]: 75 to 100%
inhibition at 1 μM [2, 3]: 75 to 100%

CC(=O)N(c1c(O)ccc2ccccc12)c1c(O)ccc2ccccc12 [Compound A075, N,N-bis(2-hydroxynaphthalen-1-yl)acetamide]
inhibition at 5 min, 1 μM [1]: < 25%
inhibition at 5 min, 10 μM [1]: < 25%
inhibition at 1 μM [2, 3]: < 25%
inhibition at 10 μM [2, 3]: < 25%

Oc1ccc2c(c1Cc1c(O)ccc3ccccc13)CNCC2 [Compound A141, 8-((2-hydroxynaphthalen-1-yl)methyl)-1,2,3,4-tetrahydroisoquinolin-7-ol]
inhibition at 5 min, 1 μM [1]: < 25%
inhibition at 5 min, 10 μM [1]: < 25%
inhibition at 1 μM [2, 3]: < 25%
inhibition at 10 μM [2, 3]: 25 to 50%

O=C(O)c1ccc2ccccc2c1Cc1c(C(=O)O)ccc2ccccc12 [Compound A100, 1,1′-methylenebis(2-naphthoic acid)]
inhibition at 5 min, 1 μM [1]: < 25%
inhibition at 5 min, 10 μM [1]: < 25%
inhibition at 1 μM [2, 3]: < 25%
inhibition at 10 μM [2, 3]: < 25%

CCN(CC)CCOc1c(C)cc2ccccc2c1Cc1c(O)c(C)cc2ccccc12 [Compound A108, 1-((2-(2-(diethylamino)ethoxy)-3-methylnaphthalen-1-yl)methyl)-3-methylnaphthalen-2-ol]
inhibition at 5 min, 1 μM [1]: < 25%
inhibition at 5 min, 10 μM [1]: 25 to 50%
inhibition at 1 μM [2, 3]: < 25%
inhibition at 10 μM [2, 3]: < 25%

Oc1cccc2c1C(c1c(O)ccc3ccccc13)=CC2 [Compound A078, 1-(4-hydroxy-1H-inden-3-yl)naphthalen-2-ol]
inhibition at 5 min, 1 μM [1]: < 25%
inhibition at 5 min, 10 μM [1]: < 25%
inhibition at 1 μM [2, 3]: < 25%
inhibition at 10 μM [2, 3]: < 25%

O=C(O)c1ccc2ccccc2c1Cc1c(O)ccc2ccccc12 [Compound A106, 1-((2-hydroxynaphthalen-1-yl)methyl)-2-naphthoic acid]
inhibition at 5 min, 1 μM [1]: < 25%
inhibition at 5 min, 10 μM [1]: < 25%
inhibition at 1 μM [2, 3]: < 25%
inhibition at 10 μM [2, 3]: < 25%

CCN(CC)CC(=O)Oc1ccc2ccccc2c1Cc1c(OC)ccc2ccccc12 [Compound A232, 1-((2-methoxynaphthalen-1-yl)methyl)naphthalen-2-yl diethylglycinate]
inhibition at 5 min, 1 μM [1]: < 25%
inhibition at 5 min, 10 μM [1]: 75 to 100%
inhibition at 1 μM [2]: 50 to 75%
inhibition at 10 μM [2]: 75 to 100%

NC(=O)c1ccc2c(Cc3c(O)ccc4ccccc34)c(O)ccc2c1 [Compound A122, 6-hydroxy-5-((2-hydroxynaphthalen-1-yl)methyl)-2-naphthamide]
inhibition at 5 min, 1 μM [1]: < 25%
inhibition at 5 min, 10 μM [1]: 75 to 100%
inhibition at 1 μM [2, 3]: 25 to 50%
inhibition at 10 μM [2, 3]: 75 to 100%

COc1ccc2ccccc2c1Cc1c(COCCN2CCCC2)ccc2ccccc12 [Compound A296, 1-(2-((1-((2-methoxynaphthalen-1-yl)methyl)naphthalen-2-yl)methoxy)ethyl)pyrrolidine]
inhibition at 5 min, 1 μM [1]: < 25%
inhibition at 5 min, 10 μM [1]: 75 to 100%
inhibition at 1 μM [2]: 75 to 100%

Oc1cccc2c1C(c1c(O)ccc3ccccc13)CCC2 (centres unmarked) [Compound A077, 1′,2′,3′,4′-tetrahydro-[1,1′-binaphthalene]-2,8′-diol]
inhibition at 5 min, 1 μM [1]: < 25%
inhibition at 5 min, 10 μM [1]: < 25%
inhibition at 1 μM [2, 3]: < 25%
inhibition at 10 μM [2, 3]: 50 to 75%

CCOCOc1ccc2ccccc2c1Cc1c(OCC2CCNCC2)ccc2ccccc12 [Compound A279, 4-(((1-((2-(ethoxymethoxy)naphthalen-1-yl)methyl)naphthalen-2-yl)oxy)methyl)piperidine]
inhibition at 5 min, 1 μM [1]: < 25%
inhibition at 5 min, 10 μM [1]: 75 to 100%
inhibition at 1 μM [2, 3]: 75 to 100%
inhibition at 10 μM [2, 3]: 75 to 100%

Oc1c(Cl)cc2ccccc2c1Cc1c(O)c(Cl)cc2ccccc12 [Compound A046, 1,1′-methylenebis(3-chloronaphthalen-2-ol)]
inhibition at 5 min, 1 μM [1]: < 25%
inhibition at 5 min, 10 μM [1]: < 25%
inhibition at 1 μM [2, 3]: < 25%
inhibition at 10 μM [2, 3]: < 25%

CCN(CC)CCOc1ccc2ccccc2c1Cc1c(OCc2ccccc2)ccc2ccccc12 [Compound A290, 2-((1-((2-(benzyloxy)naphthalen-1-yl)methyl)naphthalen-2-yl)oxy)-N,N-diethylethan-1-amine]
inhibition at 5 min, 1 μM [1]: 25 to 50%
inhibition at 5 min, 10 μM [1]: 50 to 75%
inhibition at 1 μM [2, 3]: 75 to 100%
inhibition at 10 μM [2, 3]: 75 to 100%

c1ccc(COc2ccc3ccccc3c2Cc2c(OCCN3CCCC3)ccc3ccccc23)cc1 [Compound A291, 1-(2-((1-((2-(benzyloxy)naphthalen-1-yl)methyl)naphthalen-2-yl)oxy)ethyl)pyrrolidine]
inhibition at 5 min, 1 μM [1]: < 25%
inhibition at 1 μM [2, 3]: 75 to 100%

Oc1ccc2ccccc2c1Cc1c(OCCN2CCOCC2)ccc2ccccc12 [Compound A130, 1-((2-(2-morpholinoethoxy)naphthalen-1-yl)methyl)naphthalen-2-ol]
inhibition at 5 min, 1 μM [1]: 25 to 50%
inhibition at 5 min, 10 μM [1]: 75 to 100%
inhibition at 1 μM [2, 3]: < 25%
inhibition at 10 μM [2, 3]: 75 to 100%
